Where two headings read alike, the source gives them in different places. Marks after values point to notes of the source that are not given here.
Legend:
[1] = Study 1 safety assessment (adverse events, laboratory results, vital signs, ECG); assay type: in vivo, human
Procedure: Safety was evaluated based on the incidence of adverse events, and changes from baseline in vital signs, ECGs, weight and clinical laboratory results and ECOG status.

[2] = Study 2 safety assessment (adverse events, laboratory results, vital signs, ECG); assay type: in vivo, human
Procedure: (§1) Study 2 was a phase 1, open-label study in patients with advanced solid tumors or relapsed/refractory lymphomas.
(§2) Patients also received oral solution doses of 200 mg itraconazole QD on Days 5 through 13. […] Itraconazole was administered in the study center on Days 5, and 10 through 13 with the remaining doses being administered at home by the patients.

[3] = cited from earlier work
[4] = cited from earlier work; remark: listed apart in the source
CYP3A4 = test system: CYP3A4; parameters: method as in Takeda data on file; conditions: ref Takeda data on file; cited from earlier work
[5] = Study 2: single-dose plasma pharmacokinetics of alisertib, M1 and M2 with and without itraconazole; conditions: for t1/2 / Tmax / half-life: single 30 mg alisertib ECT; for t1/2 / half-life: arithmetic mean (SD); for Tmax: median (minimum, maximum); for half-life: t1/2, Study 2
Procedure: as §1, §2
(§3) [1, 2] […] The quantitation range for the M1 assay was 2.00 to 1000 ng/mL, the assay precision ranged from 3.0 to 4.1% and the mean accuracy ranged from −1.5 to 0.3%. The quantitation range for the M2 assay was 2.00 to 1000 ng/mL, the assay precision ranged from 3.0 to 4.3% and the mean accuracy ranged from −1.1 to 0.7%.
(§4) Pharmacokinetic parameters were estimated where data permitted using non-compartmental analysis with Phoenix™ WinNonlin® Version 6.3 (Pharsight Corporation, Mountain View, CA, USA). […] The AUC parameters were estimated using the linear-log trapezoidal rule.
(§5) The analyses utilized a fixed-sequence repeated measures mixed-effects linear model. All inferences were based on least squares (LS) means estimated from this model. All statistical analyses were conducted using SAS version 9.2 (SAS Institute, NC, USA).

[6] = Study 1: single-dose plasma pharmacokinetics of alisertib, M1 and M2 with and without esomeprazole or rifampin; conditions: for t1/2 / half-life: arithmetic mean (SD); for AUC(0-inf): AUC0-inf; for AUC(0-t): AUC0-last
Procedure: (§6) Study 1 was a phase 1, open-label, fixed sequence, 2-cycle study in patients with advanced solid tumors or lymphomas.
(§7) In Cycle 2, patients also received single daily doses of either esomeprazole (40 mg QD delayed-release capsules) or rifampin (600 mg once daily [QD]) on Days 1 through 10.
(§8) Patients attended the study center on the day prior to the first dose (Day −1) for baseline assessments and returned on each of Days 1 to 4 of Cycle 1 and Days 8 to 11 of Cycle 2 for study assessments.
(§9) The quantitation range for the M1 assay was 2.00 to 1000 ng/mL, the assay precision ranged from 3.0 to 4.1% and the mean accuracy ranged from −1.5 to 0.3%. The quantitation range for the M2 assay was 2.00 to 1000 ng/mL, the assay precision ranged from 3.0 to 4.3% and the mean accuracy ranged from −1.1 to 0.7%. The same assays were used in Study 2, with similar values for assay precision and accuracy.
as §4
(§10) The analyses utilized a fixed-sequence repeated measures mixed-effects linear model. All inferences were based on least squares (LS) means estimated from this model. All statistical analyses were conducted using SAS version 9.2 (SAS Institute, NC, USA). The sample size for both studies was based on the expected 90% CIs for the ratio of geometric mean AUCs. For Study 1, the within-patient CV was estimated to be 39.4% based on prior clinical PK data in cancer patients. […] For Study 2, the within-patient CV was estimated to be 31% based on more recent clinical PK data and a sample size of 16 patients was expected to provide 90% CIs of 0.83X, 1.21X.

[7] = human, in vivo; for mean t1/2 / median Tmax: 50 mg
Procedure: as §6, §7, §8, §9, §4, §10

[8] = in vivo; for AUC0-last / AUC(0-inf) / Cmax / Tmax / t1/2: human, 30 mg
Procedure: as §1, §2, §3, §4, §5

[9] = Study 2, absence of itraconazole
[10] = human, plasma, oral, 50 mg, Study 1 esomeprazole arm, single 50 mg alisertib ECT, absence of esomeprazole, geometric mean (%CV)
[11] = human, plasma, oral, 50 mg, Study 1 rifampin arm, single 50 mg alisertib ECT, absence of rifampin, geometric mean (%CV)
[12] = human, plasma, oral, Study 1 esomeprazole arm, single 50 mg alisertib ECT, presence of esomeprazole 40 mg QD, geometric mean (%CV)
[13] = human, plasma, oral, Study 1 rifampin arm, single 50 mg alisertib ECT, presence of rifampin 600 mg QD, geometric mean (%CV)

COc1cc(Nc2ncc3c(n2)-c2ccc(Cl)cc2C(c2c(F)cccc2OC)=NC3)ccc1C(=O)O [Alisertib]
patients who died during the study ([1]; Study 1, none deemed related to study treatment): Four
Alopecia, treatment-related ([1]; human, in vivo): 17 (31) n (%)
Anaemia, treatment-related ([1]; human, in vivo): 10 (18) n (%)
Decreased appetite, treatment-related ([1]; human, in vivo): 8 (15) n (%)
Dehydration, treatment-related ([1]; human, in vivo): 6 (11) n (%)
Diarrhea, treatment-related ([1]; human, in vivo): 18 (33) n (%)
Fatigue, treatment-related ([1]; human, in vivo): 14 (25) n (%)
Leukopenia, treatment-related ([1]; human, in vivo): 7 (13) n (%)
Nausea, treatment-related ([1]; human, in vivo): 10 (18) n (%)
Neutropenia, treatment-related ([1]; human, in vivo): 17 (31) n (%)
Stomatitis, treatment-related ([1]; human, in vivo): 14 (25) n (%)
Thrombocytopenia, treatment-related ([1]; human, in vivo): 7 (13) n (%)
Vomiting, treatment-related ([1]; human, in vivo): 8 (15) n (%)
patients with at least 1 adverse event ([1]; human, in vivo): 52 (95%) patients
treatment-related serious adverse events nausea and vomiting (each) ([1]; human, in vivo): 2 patients
leukocytes and neutrophils over the course of the study ([1]; in vivo): decreases were observed
patients with other serious adverse events considered treatment related ([1]; in vivo): Five
vital signs or ECG findings ([1]; in vivo): no notable trends
leukocytes and neutrophils over the course of the study [2]: decreases were observed
vital signs or ECG findings [2]: no notable trends
aqueous solubility ([3]; at acidic pH): low
pKa ([3]; free acid): 4.53
apparent oral clearance [4]: 4.25 L/h
CYP3A4-mediated metabolism as share of alisertib total clearance (estimated) (CYP3A4): approximately 60%
t1/2 [5, 9]: 22.6 (10.3)^k h
Tmax [5, 9]: 2.9 (1.1, 10) h
t1/2 ([5]; Study 2, presence of itraconazole 200 mg QD): 25.4 (9.2)^l h
change in Cmax in the presence of itraconazole ([5]; Study 2, single 30 mg alisertib, itraconazole 200 mg QD versus alone): did not alter
AUC(0-inf) ([5]; human, plasma, oral, 30 mg): 14.8 µM·h
AUC(0-t) ([5]; human, plasma, oral, 30 mg): 13.5 µM·h
Cmax ([5]; human, plasma, oral, 30 mg): 986 nM
Tmax ([5]; human, plasma, oral, 30 mg, Tmax, Study 2, absence of itraconazole): ~3 h
half-life ([5]; human, plasma, oral, 30 mg, absence of itraconazole): ~23 h
Tmax ([5]; human, plasma, oral, Tmax, Study 2, presence of itraconazole 200 mg QD): 2.9 h
half-life ([5]; human, plasma, oral, presence of itraconazole 200 mg QD): ~25 h
increase in alisertib AUCinf (systemic exposure) by esomeprazole ([6]; Study 1, single 50 mg alisertib, esomeprazole 40 mg QD): 28%
decrease in alisertib AUCinf (AUC) by rifampin ([6]; Study 1, single 50 mg alisertib, rifampin 600 mg QD): approximately 50%
change in Cmax in the presence of rifampin ([6]; Study 1, single 50 mg alisertib, rifampin 600 mg QD versus alone, metabolites not statistically compared): did not alter
t1/2 ([6]; Study 1 esomeprazole arm, single 50 mg alisertib ECT, absence of esomeprazole): 16.1 (5.4)^b h
Tmax ([6]; Study 1 esomeprazole arm, single 50 mg alisertib ECT, presence of esomeprazole 40 mg QD, median (minimum, maximum)): 3 (1, 8) h
t1/2 ([6]; Study 1 rifampin arm, single 50 mg alisertib ECT, absence of rifampin): 16.3 (6.6)^h
AUC0-last ([6]; Study 1 rifampin arm, single 50 mg alisertib ECT, absence of rifampin, plasma, geometric mean (%CV)): 17,936 (43%) nM*h
t1/2 ([6]; Study 1 rifampin arm, single 50 mg alisertib ECT, presence of rifampin 600 mg QD): 8.2 (5.5)^i h
Tmax ([6]; Study 1 rifampin arm, single 50 mg alisertib ECT, presence of rifampin 600 mg QD, median (minimum, maximum)): 2.1 (1, 6) h
AUC(0-inf) [6, 10]: 20.3 µM·h
AUC(0-inf) [6, 11]: 16.2 µM·h
AUC(0-t) [6, 10]: 19.6 µM·h
Cmax [6, 10]: 1500 nM
Cmax [6, 11]: 1450 nM
Tmax ([6]; human, plasma, oral, 50 mg, Tmax, Study 1 esomeprazole arm, single 50 mg alisertib ECT, absence of esomeprazole, median (minimum, maximum)): 4 h
Tmax ([6]; human, plasma, oral, 50 mg, Tmax, Study 1 rifampin arm, single 50 mg alisertib ECT, absence of rifampin, median (minimum, maximum)): 4 h
Tmax ([6]; human, plasma, oral, 50 mg, median Tmax, Study 1, both treatment arms, 50 mg alisertib administered alone): 3 to 4 h
half-life ([6]; human, plasma, oral, 50 mg, t1/2, Study 1 esomeprazole arm, single 50 mg alisertib ECT, absence of esomeprazole): ~16 h
half-life ([6]; human, plasma, oral, 50 mg, t1/2, Study 1 rifampin arm, single 50 mg alisertib ECT, absence of rifampin): ~16 h
AUC(0-inf) [6, 12]: 25.9 µM·h
AUC(0-inf) [6, 13]: 8.65 µM·h
AUC(0-t) [6, 12]: 24.5 µM·h
AUC(0-t) [6, 13]: 9.06 µM·h
Cmax [6, 12]: 1720 nM
Tmax ([6]; human, plasma, oral, Tmax, Study 1 rifampin arm, single 50 mg alisertib ECT, presence of rifampin 600 mg QD, median (minimum, maximum)): ~2 h
half-life ([6]; human, plasma, oral, t1/2, Study 1 esomeprazole arm, single 50 mg alisertib ECT, presence of esomeprazole 40 mg QD): ~16 h
half-life ([6]; human, plasma, oral, t1/2, Study 1 rifampin arm, single 50 mg alisertib ECT, presence of rifampin 600 mg QD): ~8 h

COc1cc(Nc2ncc3c(n2)-c2ccc(Cl)cc2C(c2c(O)cccc2F)=NC3)ccc1C(=O)O [M2, O-desmethyl alisertib]
mean t1/2 [7]: 19.1 to 22 h
median Tmax [7]: 10 h
change in mean AUC0-inf in the presence of rifampin ([7]; 600 mg): increased
change in mean t1/2 in the presence of rifampin ([7]; 600 mg): decreased
AUC0-last [8]: 4977 (58%) nM*h
AUC(0-inf) [8]: 4926 (41%)^i nM*h
Cmax [8]: 100 nM
Tmax [8]: 9.4 (3.0, 48) h
t1/2 [8]: 28 (9.2)^i h
systemic exposure metabolite/parent ratio following multiple dose itraconazole [8]: decreased

COc1cc(Nc2ncc3c(n2)-c2ccc(Cl)cc2C(c2c(F)cccc2OC)=NC3)ccc1C(=O)O[C@@H]1O[C@H](C(=O)O)[C@@H](O)[C@H](O)[C@H]1O [M1, alisertib acylglurcuronide]
mean t1/2 [7]: 15 to 18 h
median Tmax [7]: 4 h
AUC0-last [8]: 4962 (164%) nM*h
AUC(0-inf) [8]: 5758 (174%)^d nM*h
Cmax [8]: 287 nM
Tmax [8]: 3.1 (1, 23) h
t1/2 [8]: 23.0 (11.2)^h
